IC50 data for 27 compounds are collected here from patent US10501460B2, “Heterocyclic compounds and uses thereof” (Plexxikon Inc., priority 2013, dated 2019).

Some results are limits rather than exact numbers.

Assay [1] concerns MV-4-11. Put plainly: Oncology cell growth assay MV-4-11 (CellTiter Glo, 72 hours). The format is cell-based. Particulars: Homo sapiens, MV4-11, 72 h; MV-4-11 cell growth inhibitory activity, 3d. The method in brief:
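Growth read by CellTiter Glo luminescence after 72 h compound exposure of MV-4-11 AML cells (MLL-AF4), using 8-point 1:3 series to 10 μM final in 0.2% DMSO. Data normalized to DMSO wells, four-parameter fit yields pIC50.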

Assay [2] deals with bromodomain. Put plainly: Bromodomain cell assays of Example 40 (at least one of them). The format is cell-based. Conditions: in at least one of the bromodomain cell assays described in Example 40. The method in brief: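 Growth inhibition: 3000 MV-4-11, MOLM-13, MM.1S or neuroblastoma cells/well got an 8-point 1:3 series from 10 μM top (0.2% DMSO) for 72 h, then CellTiter-Glo luminescence. Myc reporter: MV-4-11 with E-box firefly luciferase, 24 h exposure, One-Glo luminescence plus CellTiter-Fluo cell count. pIC50 from four-parameter fit.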

Turning to `Cc1noc(C)c1-c1cnc2c(-c3cnn(C)c3)cn(Cc3ccccc3Cl)c2c1` [P-0193, 4-[1-[(2-chlorophenyl)methyl]-3-(1-methylpyrazol-4-yl)pyrrolo[3,2-b]pyridin-6-yl]-3,5-dimethyl-isoxazole], the IC50 was at most 1 µM in assay [1] and below 10 µM in assay [2].

Consider `Cc1noc(C)c1-c1cnc2c(-c3cnn(C)c3)cn(Cc3ccccc3OC(F)(F)F)c2c1` [P-0194, 3,5-dimethyl-4-[3-(1-methylpyrazol-4-yl)-1-[[2-(trifluoromethoxy)phenyl]methyl]pyrrolo[3,2-b]pyridin-6-yl]isoxazole], for which the IC50 is at most 1 µM in assay [1] and below 10 µM in assay [2].

For `Cc1noc(C)c1-c1cnc2c(-c3cnn(C)c3)cn(Cc3cccnc3)c2c1` [P-0195, 3,5-dimethyl-4-[3-(1-methylpyrazol-4-yl)-1-(3-pyridylmethyl)pyrrolo[3,2-b]pyridin-6-yl]isoxazole], the results for the IC50 in assay [1] and in assay [2] were at most 1 µM and below 10 µM, respectively.

For the compound `Cc1noc(C)c1-c1cnc2ccn(C(CC#N)C3CCCC3)c2c1` (stereo not drawn) [P-0196, 3-cyclopentyl-3-[6-(3,5-dimethylisoxazol-4-yl)pyrrolo[3,2-b]pyridin-1-yl]propanenitrile], the IC50 is at most 1 µM in assay [1] and below 10 µM in assay [2].

Turning to `Cc1noc(C)c1-c1cnc2c(-c3cnn(C)c3)cn(C(CC#N)C3CCCC3)c2c1` (stereo not drawn) [P-0197, 3-cyclopentyl-3-[6-(3,5-dimethylisoxazol-4-yl)-3-(1-methylpyrazol-4-yl)pyrrolo[3,2-b]pyridin-1-yl]propanenitrile], the IC50 in assay [1] is at most 1 µM; in assay [2], below 10 µM.

As for `Cc1noc(C)c1-c1cnc2c(-c3cnn(C)c3)cn(Cc3ccccn3)c2c1` [P-0198, 3,5-dimethyl-4-[3-(1-methylpyrazol-4-yl)-1-(2-pyridylmethyl)pyrrolo[3,2-b]pyridin-6-yl]isoxazole], the IC50 in assay [1] is at most 1 µM; in assay [2], below 10 µM.

In the case of `Cc1noc(C)c1-c1cnc2c(-c3cn[nH]c3)cn(C(C)c3ccccc3)c2c1` (stereo not drawn) [P-0199, 3,5-dimethyl-4-[1-(1-phenylethyl)-3-(1H-pyrazol-4-yl)pyrrolo[3,2-b]pyridin-6-yl]isoxazole], the IC50 in assay [1] is at most 1 µM; in assay [2] it was below 10 µM.

Consider `CCn1cc(-c2cn(C(C)c3ccccc3)c3cc(-c4c(C)noc4C)cnc23)cn1` (stereo not drawn) [P-0200, 4-[3-(1-ethylpyrazol-4-yl)-1-(1-phenylethyl)pyrrolo[3,2-b]pyridin-6-yl]-3,5-dimethyl-isoxazole], for which the IC50 in assay [1] is at most 1 µM; in assay [2], below 10 µM.

On to `C=CCn1cc(-c2cn(C(C)c3ccccc3)c3cc(-c4c(C)noc4C)cnc23)cn1` (stereo not drawn) [P-0201, 4-[3-(1-allylpyrazol-4-yl)-1-(1-phenylethyl)pyrrolo[3,2-b]pyridin-6-yl]-3,5-dimethyl-isoxazole], for which the IC50 is at most 1 µM in assay [1] and below 10 µM in assay [2].

On to `COCCn1cc(-c2cn(C(C)c3ccccc3)c3cc(-c4c(C)noc4C)cnc23)cn1` (stereo not drawn) [P-0203, 4-[3-[1-(2-methoxyethyl)pyrazol-4-yl]-1-(1-phenylethyl)pyrrolo[3,2-b]pyridin-6-yl]-3,5-dimethyl-isoxazole], for which the IC50 is at most 1 µM in assay [1] and below 10 µM in assay [2].

Consider `Cc1noc(C)c1-c1cnc2c(-c3cnn(C4CCOC4)c3)cn(C(C)c3ccccc3)c2c1` (stereo not drawn) [P-0204, 3,5-dimethyl-4-[1-(1-phenylethyl)-3-(1-tetrahydrofuran-3-ylpyrazol-4-yl)pyrrolo[3,2-b]pyridin-6-yl]isoxazole], for which the IC50 was at most 1 µM in assay [1] and below 10 µM in assay [2].

On to `Cc1nn(C)cc1-c1cn(C(C)c2ccccc2)c2cc(-c3c(C)noc3C)cnc12` (stereo not drawn) [P-0205, 4-[3-(1,3-dimethylpyrazol-4-yl)-1-(1-phenylethyl)pyrrolo[3,2-b]pyridin-6-yl]-3,5-dimethyl-isoxazole], for which the figures for the IC50 in assay [1] and in assay [2] were at most 1 µM and below 10 µM, respectively.

`Cc1noc(C)c1-c1cnc2c(-c3cnn(C)c3)cn(C(C(=O)O)c3ccccc3)c2c1` (stereo not drawn) [P-0206, 2-[6-(3,5-dimethylisoxazol-4-yl)-3-(1-methylpyrazol-4-yl)pyrrolo[3,2-b]pyridin-1-yl]-2-phenyl-acetic acid]: the IC50 in assay [1] is 1 to 10 µM; in assay [2], below 10 µM.

For the compound `Cc1noc(C)c1-c1cnc2c(-c3cnn(C)c3)cn(C(C(=O)NC3CC3)c3ccccc3)c2c1` (stereo not drawn) [P-0207, N-cyclopropyl-2-[6-(3,5-dimethylisoxazol-4-yl)-3-(1-methylpyrazol-4-yl)pyrrolo[3,2-b]pyridin-1-yl]-2-phenyl-acetamide], the IC50 in assay [1] is at most 1 µM; in assay [2], below 10 µM.

Regarding `Cc1noc(C)c1-c1cnc2c(-c3cnn(C)c3)cn(CC3CCC(F)(F)CC3)c2c1` [P-0209, 4-[1-[(4,4-difluorocyclohexyl)methyl]-3-(1-methylpyrazol-4-yl)pyrrolo[3,2-b]pyridin-6-yl]-3,5-dimethyl-isoxazole], the figures for the IC50 in assay [1] and in assay [2] were at most 1 µM and below 10 µM, respectively.

As to `Cc1noc(C)c1-c1cnc2c(-c3cnn(C(F)F)c3)cn(CC3CCC(F)(F)CC3)c2c1` [P-0210, 4-[1-[(4,4-difluorocyclohexyl)methyl]-3-[1-(difluoromethyl)pyrazol-4-yl]pyrrolo[3,2-b]pyridin-6-yl]-3,5-dimethyl-isoxazole], the IC50 in assay [1] was at most 1 µM; in assay [2], below 10 µM.

Regarding `[2H]C([2H])(C1CCC(F)(F)CC1)n1cc(-c2cnn(C)c2)c2ncc(-c3c(C)noc3C)cc21` [P-0211, 4-[1-[dideuterio-(4,4-difluorocyclohexyl)methyl]-3-(1-methylpyrazol-4-yl)pyrrolo[3,2-b]pyridin-6-yl]-3,5-dimethyl-isoxazole], the IC50 was at most 1 µM in assay [1] and below 10 µM in assay [2].

Regarding `Cc1noc(C)c1-c1cnc2c(-c3cnn(C)c3)cn(CC3(F)CCCCC3)c2c1` [P-0212, 4-[1-[(1-fluorocyclohexyl)methyl]-3-(1-methylpyrazol-4-yl)pyrrolo[3,2-b]pyridin-6-yl]-3,5-dimethyl-isoxazole], the IC50 is at most 1 µM in assay [1] and below 10 µM in assay [2].

For `Cc1noc(C)c1-c1cnc2c(-c3cnn(C)c3)cn(CC3CC(F)(F)C3)c2c1` [P-0213, 4-[1-[(3,3-difluorocyclobutyl)methyl]-3-(1-methylpyrazol-4-yl)pyrrolo[3,2-b]pyridin-6-yl]-3,5-dimethyl-isoxazole], the IC50 in assay [1] was at most 1 µM; in assay [2] it was below 10 µM.

As to `[2H]C([2H])(C1CC(F)(F)C1)n1cc(-c2cnn(C)c2)c2ncc(-c3c(C)noc3C)cc21` [P-0214, 4-[1-[dideuterio-(3,3-difluorocyclobutyl)methyl]-3-(1-methylpyrazol-4-yl)pyrrolo[3,2-b]pyridin-6-yl]-3,5-dimethyl-isoxazole], the IC50 in assay [1] is at most 1 µM; in assay [2], below 10 µM.

With `Cc1noc(C)c1-c1cnc2c(-c3cc(C(F)(F)F)n[nH]3)cn(C(C)c3ccccc3)c2c1` (stereo not drawn) [P-0215, 3,5-dimethyl-4-[1-(1-phenylethyl)-3-[3-(trifluoromethyl)-1H-pyrazol-5-yl]pyrrolo[3,2-b]pyridin-6-yl]isoxazole], the IC50 in assay [1] is at most 1 µM; in assay [2], below 10 µM.

With `Cc1noc(C)c1-c1cnc2c(-c3cnn(C4CC4)c3)cn(C(C)c3ccccc3)c2c1` (stereo not drawn) [P-0216, 4-[3-(1-cyclopropylpyrazol-4-yl)-1-(1-phenylethyl)pyrrolo[3,2-b]pyridin-6-yl]-3,5-dimethyl-isoxazole], the IC50 in assay [1] is at most 1 µM; in assay [2], below 10 µM.

As to `[2H]C([2H])(O)C(c1ccccc1)n1cc(-c2cnn(C)c2)c2ncc(-c3c(C)noc3C)cc21` (stereo not drawn) [P-0218, 1,1-dideuterio-2-[6-(3,5-dimethylisoxazol-4-yl)-3-(1-methylpyrazol-4-yl)pyrrolo[3,2-b]pyridin-1-yl]-2-phenyl-ethanol], the results for the IC50 in assay [1] and in assay [2] were at most 1 µM and below 10 µM, respectively.

In the case of `[2H]C([2H])(C1CCC(F)(F)CC1)n1cc(-c2cnn(C(F)F)c2)c2ncc(-c3c(C)noc3C)cc21` [P-0219, 4-[1-[dideuterio-(4,4-difluorocyclohexyl)methyl]-3-[1-(difluoromethyl)pyrazol-4-yl]pyrrolo[3,2-b]pyridin-6-yl]-3,5-dimethyl-isoxazole], the IC50 in assay [1] was at most 1 µM; in assay [2], below 10 µM.

Turning to `Cc1noc(C)c1-c1cnc2c(-c3cnn(C)c3)cn([C@@H](C)c3ccccc3)c2c1` [P-0222, 3,5-dimethyl-4-[3-(1-methylpyrazol-4-yl)-1-[(1S)-1-phenylethyl]pyrrolo[3,2-b]pyridin-6-yl]isoxazole], the IC50 in assay [1] was at most 1 µM; in assay [2], below 10 µM.

Consider `Cc1noc(C)c1-c1cnc2c(-c3cnn(C)c3)cn([C@H](C)c3ccccc3)c2c1` [P-0223, 3,5-dimethyl-4-[3-(1-methylpyrazol-4-yl)-1-[(1R)-1-phenylethyl]pyrrolo[3,2-b]pyridin-6-yl]isoxazole], for which the IC50 was at most 1 µM in assay [1] and below 10 µM in assay [2].

Take `Cc1noc(C)c1-c1cnc2c(I)cn(C(C)c3ccccc3)c2c1` (stereo not drawn) [P-0224, 4-[3-iodo-1-(1-phenylethyl)pyrrolo[3,2-b]pyridin-6-yl]-3,5-dimethyl-isoxazole]: the IC50 in assay [1] was at most 1 µM; in assay [2] it was below 10 µM.
